Experimental data published in ChEMBL document CHEMBL4411296, “Design and development of Isatin-triazole hydrazones as potential inhibitors of microtubule affinity-regulating kinase 4 for the therapeutic management of cell proliferation and metastasis” (Eur J Med Chem, 2019).

Assays:
Assay type in all cases: functional
[1] = system: HL-60(TB); test: Growth inhibition of human HL-60(TB) cells assessed as cell growth at 10 uM after 48 hrs by sulforhodamine B assay relative to control; conditions: HL-60, 48 h, read-out: Activity
[2] = system: K562; test: Growth inhibition of human K562 cells assessed as cell growth at 10 uM after 48 hrs by sulforhodamine B assay relative to control; conditions: K562, 48 h, read-out: Activity
[3] = system: MOLT-4; test: Growth inhibition of human MOLT4 cells assessed as cell growth at 10 uM after 48 hrs by sulforhodamine B assay relative to control; conditions: MOLT-4, 48 h, read-out: Activity
[4] = system: SR; test: Growth inhibition of human SR cells assessed as cell growth at 10 uM after 48 hrs by sulforhodamine B assay relative to control; conditions: read-out: Activity
[5] = system: A549; test: Growth inhibition of human A549/ATCC cells assessed as cell growth at 10 uM after 48 hrs by sulforhodamine B assay relative to control; conditions: A549, 48 h, read-out: Activity
[6] = system: EKVX; test: Growth inhibition of human EKVX cells assessed as cell growth at 10 uM after 48 hrs by sulforhodamine B assay relative to control; conditions: read-out: Activity
[7] = system: HOP-62; test: Growth inhibition of human HOP62 cells assessed as cell growth at 10 uM after 48 hrs by sulforhodamine B assay relative to control; conditions: HOP-62, 48 h, read-out: Activity
[8] = system: HOP-92; test: Growth inhibition of human HOP92 cells assessed as cell growth at 10 uM after 48 hrs by sulforhodamine B assay relative to control; conditions: HOP-92, 48 h, read-out: Activity
[9] = system: NCI-H226; test: Growth inhibition of human NCI-H226 cells assessed as cell growth at 10 uM after 48 hrs by sulforhodamine B assay relative to control; conditions: NCI-H226, 48 h, read-out: Activity
[10] = system: HCC 2998; test: Growth inhibition of human HCC2998 cells assessed as cell growth at 10 uM after 48 hrs by sulforhodamine B assay relative to control; conditions: HCC 2998, 48 h, read-out: Activity
[11] = system: HCT-116; test: Growth inhibition of human HCT116 cells assessed as cell growth at 10 uM after 48 hrs by sulforhodamine B assay relative to control; conditions: HCT-116, 48 h, read-out: Activity
[12] = system: SF-268; test: Growth inhibition of human SF268 cells assessed as cell growth at 10 uM after 48 hrs by sulforhodamine B assay relative to control; conditions: SF-268, 48 h, read-out: Activity
[13] = system: SF-295; test: Growth inhibition of human SF295 cells assessed as cell growth at 10 uM after 48 hrs by sulforhodamine B assay relative to control; conditions: SF-295, 48 h, read-out: Activity
[14] = system: SNB-19; test: Growth inhibition of human SNB19 cells assessed as cell growth at 10 uM after 48 hrs by sulforhodamine B assay relative to control; conditions: SNB-19, 48 h, read-out: Activity
[15] = system: SNB-75; test: Growth inhibition of human SNB75 cells assessed as cell growth at 10 uM after 48 hrs by sulforhodamine B assay relative to control; conditions: SNB-75, 48 h, read-out: Activity
[16] = system: Malme-3M; test: Growth inhibition of human MALME-3M cells assessed as cell growth at 10 uM after 48 hrs by sulforhodamine B assay relative to control; conditions: read-out: Activity
[17] = system: M14; test: Growth inhibition of human M14 cells assessed as cell growth at 10 uM after 48 hrs by sulforhodamine B assay relative to control; conditions: M14, 48 h, read-out: Activity
[18] = system: SK-MEL-2; test: Growth inhibition of human SK-MEL-2 cells assessed as cell growth at 10 uM after 48 hrs by sulforhodamine B assay relative to control; conditions: SK-MEL-2, 48 h, read-out: Activity
[19] = system: SK-MEL-28; test: Growth inhibition of human SK-MEL-28 cells assessed as cell growth at 10 uM after 48 hrs by sulforhodamine B assay relative to control; conditions: SK-MEL-28, 48 h, read-out: Activity
[20] = system: UACC-257; test: Growth inhibition of human UACC257 cells assessed as cell growth at 10 uM after 48 hrs by sulforhodamine B assay relative to control; conditions: UACC-257, 48 h, read-out: Activity
[21] = system: OVCAR-3; test: Growth inhibition of human OVCAR3 cells assessed as cell growth at 10 uM after 48 hrs by sulforhodamine B assay relative to control; conditions: OVCAR-3, 48 h, read-out: Activity
[22] = system: OVCAR-4; test: Growth inhibition of human OVCAR4 cells assessed as cell growth at 10 uM after 48 hrs by sulforhodamine B assay relative to control; conditions: OVCAR-4, 48 h, read-out: Activity
[23] = system: OVCAR-5; test: Growth inhibition of human OVCAR5 cells assessed as cell growth at 10 uM after 48 hrs by sulforhodamine B assay relative to control; conditions: OVCAR-5, 48 h, read-out: Activity
[24] = system: OVCAR-8; test: Growth inhibition of human OVCAR8 cells assessed as cell growth at 10 uM after 48 hrs by sulforhodamine B assay relative to control; conditions: OVCAR-8, 48 h, read-out: Activity
[25] = system: SK-OV-3; test: Growth inhibition of human SKOV3 cells assessed as cell growth at 10 uM after 48 hrs by sulforhodamine B assay relative to control; conditions: SK-OV-3, 48 h, read-out: Activity
[26] = system: 786-0; test: Growth inhibition of human 786-0 cells assessed as cell growth at 10 uM after 48 hrs by sulforhodamine B assay relative to control; conditions: 786-0, 48 h, read-out: Activity
[27] = system: ACHN; test: Growth inhibition of human ACHN cells assessed as cell growth at 10 uM after 48 hrs by sulforhodamine B assay relative to control; conditions: read-out: Activity
[28] = system: CAKI-1; test: Growth inhibition of human Caki1 cells assessed as cell growth at 10 uM after 48 hrs by sulforhodamine B assay relative to control; conditions: CAKI-1, 48 h, read-out: Activity
[29] = system: RXF 393; test: Growth inhibition of human RXF393 cells assessed as cell growth at 10 uM after 48 hrs by sulforhodamine B assay relative to control; conditions: RXF 393, 48 h, read-out: Activity
[30] = system: SN12C; test: Growth inhibition of human SN12C cells assessed as cell growth at 10 uM after 48 hrs by sulforhodamine B assay relative to control; conditions: read-out: Activity
[31] = system: TK-10; test: Growth inhibition of human TK10 cells assessed as cell growth at 10 uM after 48 hrs by sulforhodamine B assay relative to control; conditions: TK-10, 48 h, read-out: Activity
[32] = system: DU-145; test: Growth inhibition of human DU145 cells assessed as cell growth at 10 uM after 48 hrs by sulforhodamine B assay relative to control; conditions: DU-145, 48 h, read-out: Activity
[33] = system: BT-549; test: Growth inhibition of human BT549 cells assessed as cell growth at 10 uM after 48 hrs by sulforhodamine B assay relative to control; conditions: BT-549, 48 h, read-out: Activity
[34] = system: MDA-MB-468; test: Growth inhibition of human MDA-MB-468 cells assessed as cell growth at 10 uM after 48 hrs by sulforhodamine B assay relative to control; conditions: MDA-MB-468, 48 h, read-out: Activity

| Compound | growth at 10 µM [1] | growth at 10 µM [2] | growth at 10 µM [3] | growth at 10 µM [4] | growth at 10 µM [5] | growth at 10 µM [6] | growth at 10 µM [7] | growth at 10 µM [8] | growth at 10 µM [9] | growth at 10 µM [10] | growth at 10 µM [11] | growth at 10 µM [12] | growth at 10 µM [13] | growth at 10 µM [14] | growth at 10 µM [15] | growth at 10 µM [16] | growth at 10 µM [17] | growth at 10 µM [18] | growth at 10 µM [19] | growth at 10 µM [20] | other results |
| --- | --- | --- | --- | --- | --- | --- | --- | --- | --- | --- | --- | --- | --- | --- | --- | --- | --- | --- | --- | --- | --- |
| COc1ccc(Cn2cc(C(=O)N/N=C3/C(=O)Nc4ccc(C)cc43)nn2)cc1 | 84.8% | 87.8% | 87.8% | 86% | 97.9% | 108% | 112% | 121% | 93% | 99.9% | 122% | 94.1% | 111% | 98% | 110% | 106% | 109% | 92.9% | 111% | 101% | growth at 10 µM [21]: 108%; growth at 10 µM [22]: 104%; growth at 10 µM [23]: 105%; growth at 10 µM [24]: 104%; growth at 10 µM [25]: 113%; growth at 10 µM [26]: 96.3%; growth at 10 µM [27]: 111%; growth at 10 µM [28]: 95.4%; growth at 10 µM [29]: 117%; growth at 10 µM [30]: 98.4%; growth at 10 µM [31]: 94.6%; growth at 10 µM [32]: 96%; growth at 10 µM [33]: 112%; growth at 10 µM [34]: 99.2% |
| COc1ccc(Cn2cc(C(=O)N/N=C3/C(=O)Nc4c(C)cccc43)nn2)cc1 | 78.9% | 63.2% | 83.5% | 76.6% | 85.3% | 107% | 106% | 51.3% | 75.1% | 101% | 7.1% | 87.3% | 111% | 97.5% | 27.3% | 40.5% | 71.9% | 91.9% | 94.9% | 93.7% | growth at 10 µM [21]: 46.7%; growth at 10 µM [22]: -28.2%; growth at 10 µM [23]: 93.6%; growth at 10 µM [24]: 67.6%; growth at 10 µM [25]: 110%; growth at 10 µM [26]: 43.5%; growth at 10 µM [27]: 38.2%; growth at 10 µM [28]: 77.1%; growth at 10 µM [29]: 81.9%; growth at 10 µM [30]: 62.1%; growth at 10 µM [31]: 56.1%; growth at 10 µM [32]: 60.4%; growth at 10 µM [33]: 103%; growth at 10 µM [34]: 89.2% |
| COc1ccc(Cn2cc(C(=O)N/N=C3/C(=O)Nc4ccc(Cl)cc43)nn2)cc1 | 93.2% | 91.2% | 90.6% | 80.6% | 103% | 106% | 112% | 116% | 96.8% | 107% | 107% | 98.9% | 108% | 98.5% | 115% | 95% | 110% | 99% | 113% | 113% | growth at 10 µM [21]: 109%; growth at 10 µM [22]: 100%; growth at 10 µM [23]: 114%; growth at 10 µM [24]: 105%; growth at 10 µM [25]: 119%; growth at 10 µM [26]: 99.8%; growth at 10 µM [27]: 107%; growth at 10 µM [28]: 101%; growth at 10 µM [29]: 103%; growth at 10 µM [30]: 101%; growth at 10 µM [31]: 84.8%; growth at 10 µM [32]: 102%; growth at 10 µM [33]: 116%; growth at 10 µM [34]: 97.2% |
| COc1ccc(Cn2cc(C(=O)N/N=C3/C(=O)Nc4ccccc43)nn2)cc1 | 93.3% | 90.5% | 93.2% | 94.8% | 98.4% | 104% | 104% | 112% | 86.8% | 110% | 109% | 101% | 103% | 98% | 95.3% | 97.2% | 103% | 94.8% | 104% | 102% | growth at 10 µM [21]: 112%; growth at 10 µM [22]: 108%; growth at 10 µM [23]: 93%; growth at 10 µM [24]: 97.8%; growth at 10 µM [25]: 113%; growth at 10 µM [26]: 106%; growth at 10 µM [27]: 107%; growth at 10 µM [28]: 93.3%; growth at 10 µM [29]: 101%; growth at 10 µM [30]: 96.3%; growth at 10 µM [31]: 107%; growth at 10 µM [32]: 104%; growth at 10 µM [33]: 115%; growth at 10 µM [34]: 99% |
| COc1ccc(Cn2cc(C(=O)N/N=C3/C(=O)Nc4c(F)cccc43)nn2)cc1 | 90.7% | 88% | 96.5% | 90.3% | 93.2% | 107% | 98.4% | 83.8% | 91.9% | 102% | 63.7% | 100% | 98% | 94.2% | 90.1% | 78.2% | 101% | 93.3% | 104% | 88.7% | growth at 10 µM [21]: 111%; growth at 10 µM [22]: 61.5%; growth at 10 µM [23]: 94.8%; growth at 10 µM [24]: 85.5%; growth at 10 µM [25]: 102%; growth at 10 µM [26]: 101%; growth at 10 µM [27]: 86.4%; growth at 10 µM [28]: 84.2%; growth at 10 µM [29]: 86.3%; growth at 10 µM [30]: 94.8%; growth at 10 µM [31]: 96%; growth at 10 µM [32]: 102%; growth at 10 µM [33]: 105%; growth at 10 µM [34]: 89.6% |
